For assay [1], the system named is Mycobacterium tuberculosis. The experiment in a line: Antitubercular activity against Mycobacterium tuberculosis H37Ra ATCC 25177 after 4 days by microtiter plate alamar blue technique. The conditions noted are these: 96 h. The format is functional, organism-based. (In general: The colour change of resazurin is a common sign of viable cells or microbes.)
Assay [2] deals with MCF7. The experiment in a line: Cytotoxicity against human MCF7 cells by SRB assay. In kind it is functional, cell-based. (Sulforhodamine B stains cellular protein and so reports cell mass.)
For assay [3], the system named is HT-29. Put plainly: Cytotoxicity against human HT29 cells by SRB assay. In kind it is functional, cell-based.
For assay [4], the system named is HeLa. The experiment in a line: Cytotoxicity against human HeLa cells by SRB assay. In kind it is functional, cell-based.
The test system of assay [5] is KB. The experiment in a line: Cytotoxicity against human KB cells by SRB assay. The format is functional, cell-based.
Assay [6] concerns HT-29. The experiment in a line: Cytotoxicity against human HT29 cells at 10 uM by SRB assay. In kind it is functional.
For assay [7], the system named is HeLa. Put plainly: Cytotoxicity against human HeLa cells at 10 uM by SRB assay. In kind it is functional.
In assay [8] the test system is KB. The experiment in a line: Cytotoxicity against human KB cells at 10 uM by SRB assay. The format is functional.
The subject of assay [9] is MCF7. Put plainly: Cytotoxicity against human MCF7 cells at 10 uM by SRB assay. In kind it is functional.
Assay [10] has as its system Mycobacterium tuberculosis. Put plainly: Antimycobacterial activity against Mycobacterium tuberculosis H37Rv. The format is functional.

The structures appear in SMILES notation. In brackets after ≈: the same amount, converted by molar mass.

Consider `CC1(C)CCC[C@]2(C)[C@H]3C[C@@H](O)[C@]4(C)[C@H]5COC(=O)C5=CC[C@H]4[C@]3(C)CC[C@@H]12`, for which, in assay [1], the minimal inhibitory concentration (MIC) was 16 µM (≈ 6.19 µg/mL). Besides, the IC50 in the assay with MCF7 [2] came out at 320 nM; in the assay with HT-29 [3], 910 nM; with HeLa [4] it was 1990 nM; in the assay on KB [5], 750 nM.
`CC(=O)OCC1=CC(=O)O[C@@H]1C/C=C(\CC/C=C(\C)CCC1=C(C)CCCC1(C)C)COC(C)=O`: in assay [1], the MIC is 51 µM (≈ 24.8 µg/mL). For the same compound, the IC50 with MCF7 [2] is 9340 nM. Besides, the Activity in the assay on HT-29 [6], with HeLa [7] and in the assay with KB [8] was 80% throughout.
With `CC(=O)O[C@@H]1C[C@@H]2[C@@]3(C)CCCC(C)(C)[C@@H]3CC[C@@]2(C)[C@@H]2CC=C3C(=O)OC[C@@H]3[C@@]12C`, the IC50 in assay [1] was 117000 nM; in the assay with HT-29 [3] it was 2340 nM; in the assay with HeLa [4], 5490 nM; in the assay on KB [5] it was 3010 nM.
With `CC(=O)O[C@@H]1OC(=O)C=C1[C@H]1CC=C(CC/C=C(\C)CCC2=C(C)CCCC2(C)C)[C@H](O)O1`, in assay [1], the MIC came to 7 µM (≈ 3.21 µg/mL). Besides, the IC50 in the assay on MCF7 [2] amounted to 260 nM; in the assay with HT-29 [3] it was 760 nM; in the assay with HeLa [4], 1680 nM; in the assay with KB [5], 630 nM.
For the compound `CC(=O)O[C@@H]1OC(=O)C2=CC[C@H]3[C@]4(C)CC[C@H]5C(C)(C)CCC[C@]5(C)[C@H]4CC[C@]3(C)[C@H]21`, in assay [1], it took 4 µM (≈ 1.71 µg/mL) to inhibit growth (MIC). Moreover, the Activity in the assay on MCF7 [9], in the assay with HT-29 [6], with HeLa [7] and in the assay with KB [8] was 80% in each case.
In turn, `CC(=O)OCC1=CC(=O)O[C@@H]1C/C=C(/CC/C=C(\C)CCC1=C(C)CCCC1(C)C)COC(C)=O` yielded an MIC in [1] of 26 µM (≈ 12.7 µg/mL). Moreover, the IC50 in the assay on MCF7 [2] came to 5990 nM. Besides, the Activity in the assay with HT-29 [6], in the assay with HeLa [7] and in the assay on KB [8] was 80% throughout.
In assay [1], `CC(=O)O[C@@H]1OC=C2[C@@H](OC(C)=O)C[C@H]3[C@]4(C)CC[C@H]5C(C)(C)CCC[C@]5(C)[C@H]4C[C@@H](OC(C)=O)[C@]3(C)[C@H]21` [HETERONEMIN ACETATE] had an MIC of 6 µM. The IC50 in the assay on MCF7 [2] is 6450 nM. Moreover, the Activity with HT-29 [6], with HeLa [7] and in the assay with KB [8] was 80% in each case.
Turning to `CC(=O)O[C@@H]1OC=C2[C@@H](OC(C)=O)C[C@H]3[C@]4(C)CC[C@H]5C(C)(C)CCC[C@]5(C)[C@H]4C[C@@H](O)[C@]3(C)[C@H]21` [HETERONEMIN], the results for the MIC in assay [10] and in assay [1] were 6.25 µg/mL (≈ 12.8 µM) and 3 µM (≈ 1.47 µg/mL), respectively. The IC50 in the assay with MCF7 [2] came out at 290 nM; with HT-29 [3], 390 nM; in the assay with HeLa [4], 450 nM; in the assay with KB [5], 370 nM.
In assay [1], `NNC(=O)c1ccncc1` [ISONIAZID] gave an MIC of 0.29 µM (≈ 0.0398 µg/mL).
In assay [1], `NC[C@H]1O[C@H](O[C@H]2[C@H](O)[C@@H](O[C@H]3O[C@H](CO)[C@@H](O)[C@H](N)[C@H]3O)[C@H](N)C[C@@H]2N)[C@H](O)[C@@H](O)[C@@H]1O` [KANAMYCIN] gave an MIC of 3.5 µM (≈ 1.7 µg/mL).

A word on the MIC: it is the smallest concentration in the dilution series that meets the test's criterion for growth inhibition. A low value points to a more susceptible organism. Broadly, the IC50 is the concentration that inhibits the measured activity by half.

Values taken from ChEMBL document CHEMBL1148934, “Antitubercular sesterterpenes from the Thai sponge Brachiaster sp” (J Nat Prod, 2004).
